How the values were obtained:
[1] = test system: Mus musculus; assay: Effect on tonic phase of audiogenic seizures in DBA/2 mice at 3.3-200 umol/kg, ip; type: functional; details: DBA/2, ip
[2] = test system: Mus musculus; assay: Effect on locomotion in mice assessed by rotarod test at 3.3-200 umol/kg, ip; type: functional
[3] = target: T1, Glutamate receptor ionotropic, AMPA (Rattus norvegicus, UniProt P19490+P19491+P19492+P19493); assay: Ability to inhibit kainate-induced increase of calcium in rat cerebellar granule cells expressing AMPA receptor; type: functional
[4] = test system: Mus musculus; assay: Effect on clonic phase of audiogenic seizures in DBA/2 mice at 3.3-200 umol/kg, ip; type: functional; details: DBA/2, ip
[5] = test system: Mus musculus; assay: Protective index [PI = TD50/ED50 (from clonic phase of the audiogenic seizures)] in mice at 3.3-200 umol/kg, ip; type: functional
[6] = target: T1, Glutamate receptor ionotropic, AMPA; assay: Displacement of [3H]CP-526427 from AMPA receptor in rat forebrain membranes; type: cell membranes, Membrane
[7] = target: Glutamate receptor ionotropic, kainate 1 (Rattus norvegicus, UniProt P22756); assay: Ability to inhibit domoic acid-induced increase of calcium in rat HEK293 cells expressing GluR5; type: functional, cell-based
Sequence of Glutamate receptor ionotropic, kainate 1 (P22756 whole entry): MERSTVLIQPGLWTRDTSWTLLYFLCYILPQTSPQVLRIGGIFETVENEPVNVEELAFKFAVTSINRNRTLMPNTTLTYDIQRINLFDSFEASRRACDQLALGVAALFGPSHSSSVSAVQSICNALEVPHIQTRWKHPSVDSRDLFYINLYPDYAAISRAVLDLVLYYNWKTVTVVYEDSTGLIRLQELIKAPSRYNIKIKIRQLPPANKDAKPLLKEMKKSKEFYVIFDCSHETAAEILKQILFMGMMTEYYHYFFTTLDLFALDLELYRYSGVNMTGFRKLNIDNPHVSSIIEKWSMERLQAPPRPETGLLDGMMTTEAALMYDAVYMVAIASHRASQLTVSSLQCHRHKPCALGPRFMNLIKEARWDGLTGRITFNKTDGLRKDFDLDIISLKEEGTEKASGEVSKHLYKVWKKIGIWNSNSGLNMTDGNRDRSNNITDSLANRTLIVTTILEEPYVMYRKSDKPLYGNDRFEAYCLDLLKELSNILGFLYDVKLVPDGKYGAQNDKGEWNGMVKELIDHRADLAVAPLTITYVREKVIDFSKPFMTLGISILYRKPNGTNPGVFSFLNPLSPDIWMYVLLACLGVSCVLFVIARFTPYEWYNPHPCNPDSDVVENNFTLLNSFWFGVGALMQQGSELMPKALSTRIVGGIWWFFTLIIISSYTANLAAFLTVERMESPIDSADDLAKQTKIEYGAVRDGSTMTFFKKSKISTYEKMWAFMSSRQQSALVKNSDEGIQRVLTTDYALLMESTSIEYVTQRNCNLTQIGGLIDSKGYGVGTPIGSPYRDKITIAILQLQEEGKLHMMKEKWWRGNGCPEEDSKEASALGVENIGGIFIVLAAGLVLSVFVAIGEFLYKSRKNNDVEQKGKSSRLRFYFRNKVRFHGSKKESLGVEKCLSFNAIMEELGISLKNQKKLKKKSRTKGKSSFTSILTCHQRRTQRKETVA

Row | Compound | IC50 [3] | IC50 [6] | IC50 [7] | ED50 [1] | TD50 [2] | ED50 [4] | Ratio TD50/ED50 [5]
1 | CNC(=O)N1N=C(c2ccc(N)cc2)c2cc3c(cc2CC1=O)OCCO3 | 5.4 µM | – | – | 32.1 µmol/kg | 96.4 µmol/kg | 45.5 µmol/kg | 2.1
2 | Nc1ccc(C2=NNC(=O)Cc3cc4c(cc32)OCO4)cc1 | 12 µM | – | – | – | – | – | 4.5
3 | CCNC(=O)N1N=C(c2ccc(N)cc2)c2cc3c(cc2CC1=O)OCO3 | 11 µM | 12 µM | – | – | – | – | 3.8
4 | CCNC(=O)N1N=C(c2ccc(N)cc2)c2cc3c(cc2CC1=O)OCCO3 | – | 9.3 µM | – | 41.7 µmol/kg | 95.3 µmol/kg | 48.1 µmol/kg | 2
5 | CNC(=O)N1N=C(c2ccc(N)cc2)c2cc3c(cc2CC1=O)OCO3 | – | – | – | – | – | – | 3.9
6 | CC1=NN=C(c2ccc(N)cc2)c2cc3c(cc2C1)OCO3 [GYKI-52466] | – | – | – | – | – | – | 2.1

Continued, in another order:

Row | IC50 [3] | IC50 [6] | IC50 [7] | Compound | ED50 [1] | TD50 [2] | ED50 [4] | Ratio TD50/ED50 [5]
7 | – | 1.8 µM | – | Cc1cc(C2=NNC(=O)Cc3cc4c(cc32)OCCO4)ccc1N | 24.6 µmol/kg | 115 µmol/kg | 48.2 µmol/kg | 2.4
8 | – | > 20 µM | – | Nc1ccc(C2=NNC(=O)Cc3cc4c(cc32)OCCO4)c(Cl)c1 | > 100 µmol/kg | – | > 100 µmol/kg | –
9 | – | 2 µM | – | Nc1ccc(C2=NNC(=O)Cc3cc4c(cc32)OCCO4)cc1Cl | 27.2 µmol/kg | 99.1 µmol/kg | 70.8 µmol/kg | 1.4
10 | 2.9 µM | – | > 10 µM | Nc1ccc(C2=NNC(=O)Cc3cc4c(cc32)OCCO4)cc1 | 44.8 µmol/kg | 102 µmol/kg | 61.3 µmol/kg | 1.7

Reference: ChEMBL document CHEMBL1148548, “New 7,8-ethylenedioxy-2,3-benzodiazepines as noncompetitive AMPA receptor antagonists” (Bioorg Med Chem Lett, 2006)
